Results from ChEMBL document CHEMBL1201862, “PubChem BioAssay data set” (2004).
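Growth conditions: 96-well plates. Treatment: test compound, 48 hours, 5 concentrations. Analysis: linear interpolation between bracketing concentrations; unreached endpoints set to highest concentration. The concentration for 50% growth inhibition is given as GI50.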 Activity calls are given as the source filed them. Cut-off read from the data, not from the text of the source: active = GI50 up to about 1.1 µM and inactive = higher.

Key:
Test in all cases: NCI tumour cell line growth inhibition, 48 h
[1] = tested on: 786-0
[2] = tested on: A498
[3] = tested on: A549
[4] = tested on: ACHN
[5] = tested on: HCC 2998
[6] = tested on: HOP-62
[7] = tested on: KM12
[8] = tested on: NCI-H23
[9] = tested on: NCI-H522
[10] = tested on: OVCAR-5
[11] = tested on: OVCAR-8
[12] = tested on: SF-295
[13] = tested on: U-251
[14] = tested on: LOX IMVI
[15] = tested on: NCI-H226
[16] = tested on: SK-OV-3
[17] = tested on: SR

Measured: GI50

COc1ccc(C[C@@H]2Cc3cc(OC)c(OC)cc3CN2C)cc1
inactive: [1] > 100 µM | [2] > 100 µM | [3] > 100 µM | [4] > 100 µM | [5] > 100 µM | [6] > 100 µM | [7] > 100 µM | [8] > 100 µM | [9] > 100 µM | [10] > 100 µM | [11] > 100 µM | [12] 57 µM | [13] > 100 µM

O=S(=O)(OI(OI(OS(=O)(=O)C(F)(F)F)c1ccccc1)c1ccccc1)C(F)(F)F
inactive: [1] 50.4 µM | [2] > 100 µM | [3] 46.8 µM | [4] 52.1 µM | [5] > 100 µM | [6] 90.8 µM | [7] 28.2 µM | [14] 20 µM | [15] 58.6 µM | [9] 23.2 µM | [10] > 100 µM | [11] 48.8 µM | [12] 21.7 µM | [13] > 100 µM

Cc1ccc(C2=CC(=O)c3ccccc3C2=O)n1-c1ccccc1
inactive: [1] > 100 µM | [3] > 100 µM | [5] > 100 µM | [6] > 100 µM | [7] 43.1 µM | [14] > 100 µM | [15] 7.67 µM | [8] > 100 µM | [9] > 100 µM | [11] > 100 µM | [12] > 100 µM | [16] > 100 µM | [13] 46.7 µM

CC(/C(=N/NC(=O)C(N)=O)c1c(Cl)ccc(Cl)c1O)C1(O)C(=O)Nc2ccccc21 (stereo not given)
inactive: [1] 57 µM | [2] 17.8 µM | [3] 50.2 µM | [4] 26.5 µM | [5] 65.3 µM | [6] > 100 µM | [7] 30.4 µM | [14] 30.1 µM | [15] 29.3 µM | [8] 50.6 µM | [9] 19.2 µM | [10] 34.8 µM | [11] 29.7 µM | [12] > 100 µM | [16] > 100 µM | [13] 50.1 µM

Cc1cccc(N2C(=O)C(=O)C(c3nc4ccccc4s3)/C(=N/NC(=S)NN)C2=O)c1C (stereo not given)
inactive: [1] > 100 µM | [2] > 100 µM | [4] > 100 µM | [5] > 100 µM | [6] > 100 µM | [7] > 100 µM | [14] > 100 µM | [15] > 100 µM | [8] > 100 µM | [9] > 100 µM | [10] > 100 µM | [11] > 100 µM | [12] > 100 µM | [16] > 100 µM | [13] > 100 µM

CCCCC1(C)C=C/C(=C2/C(=O)O/C(=C\C(=O)O)C2=O)O1 (stereo not given)
inactive: [1] > 100 µM | [2] > 100 µM | [3] > 100 µM | [4] > 100 µM | [6] > 100 µM | [7] > 100 µM | [14] > 100 µM | [15] > 100 µM | [8] > 100 µM | [10] > 100 µM | [11] > 100 µM | [12] > 100 µM | [16] > 100 µM | [17] > 100 µM | [13] > 100 µM

OCc1c[te]c(-c2ccccc2)c1
inactive: [1] > 100 µM | [2] 92.3 µM | [3] 63.2 µM | [4] 53.3 µM | [5] > 100 µM | [6] 32.2 µM | [7] 80.5 µM | [15] 24.9 µM | [8] 22.1 µM | [10] > 100 µM | [11] 34.4 µM | [12] 2.25 µM | [16] > 100 µM | [13] 34.6 µM
